For data set [1] the following is noted: in vivo, ip, 1 mg/kg.
Description: (§2) Mice (n = 30), C57BL/6 males and females 8–10 weeks old weighing 20–25 g, purchased from Jackson Laboratories (Bar Harbor, ME) were used in this study. Mice were housed in ventilated racks in specific pathogen free conditions and were provided with food and water available ad libitum. M10 peptide was solubilized in water and administered intraperitoneally in a dose of 1 mg/kg. Mice were sacrificed by isoflurane overdose, and blood samples were collected by cardiac puncture in the presence of 0.01% of Na-Citrate at time intervals of 15 min, 30 min, 1, 2, 4, 6, 12, 24, and 48 hours after injection. The blood samples (n = 3/group) were centrifuged at 2500 rpm for 10 min, and plasma samples were stored at -80°C. Plasma samples collected from mice injected with water intraperitoneally (n = 3) were used as a negative control.
(§3) M10 concentration was measured by indirect ELISA developed in our laboratory. Known concentrations of pharmaceutical grade M10 peptide (GenScript, Piscataway, NJ) with purity more than 98% were used to generate the standard curve. Briefly, 100μl of known concentration of M10 (range: 10 ng/ml to 500 ng/ml), blank (PBS without M10), and 100μl of the diluted plasma sample were plated in triplicate in high-affinity polystyrene micro-titer plates. Samples were incubated with gentle rocking overnight at 4°C and blocked with 5% bovine serum albumin in PBS. After washing, samples were incubated for 2 hours at room temperature with anti-cMET rabbit antibody (Santa Cruz Biotechnology, Santa Cruz, CA), followed by 1hour incubation with HRP-conjugated anti-Rabbit IgG (Rockland, Limerick, PA). M10 was detected with ultra-TMB (3, 3’, 5, 5’-tetramethylbenzidine)-substrate, and the reaction was terminated by using 2M sulfuric acid. Absorbance was measured at 450 nm by Spectra Max Plus spectrophotometer. Concentrations of unknown samples were then calculated from their corresponding optical density (OD) values by Softmax Pro 4.8 software (Molecular Devices, Sunnyvale, CA) using the standard curve generated from the known concentrations of M10. Control plasma samples collected from mice with intraperitoneal water injection were run in triplicate with each experiment, mean was calculated, and samples were normalized by subtracting the negative control mean value. Final concentrations were calculated by adjusting the sample dilution factor.
(§4) To obtain the pharmacokinetic profile of M10 in mouse plasma, C57Bl6 mice were injected intraperitoneally with M10 at a dose of 1mg/kg of body weight. Plasma samples were collected by cardiac puncture in the presence of 0.01% of Na-Citrate at time intervals of 15 min, 30 min, 1h, 2h, 4h, 6h, 12 h, 24 h, and 48 h following injection. Samples were diluted in PBS in order to fit within the range of the standard curves and then tested using the M10 ELISA. Concentration of M10 in plasma samples was calculated by Softmax Pro 4.8 software using the standard curve generated from the known concentration of M10. The samples were normalized by subtracting the negative controls represented by plasma samples obtained from mice injected with H2O.
The test system of data set [2] is human lung and skin fibroblasts. The conditions noted are these: cited from earlier work. The text has this: (§1) We recently discovered a 10 amino acid antifibrotic peptide (M10) with antifibrotic properties in vitro and in a murine model of lung fibrosis, which is a natural cleavage product by caspase-3 of the cytoplasmic tail of the c-MET receptor tyrosine kinase. Following binding of hepatocyte growth factor (HGF), c-MET undergoes auto phosphorylation at tyrosine residues in its cytoplasmic domain and initiates a cascade of signal transduction events leading to specific cellular responses implicated in embryonic development and tissue regeneration after injury.

Data set [3] has as its system bleomycin-induced mouse model of lung fibrosis. As to conditions: cited from earlier work.
Source text: as §1

Another data set has as its system Smad2. The conditions noted are these: cited from earlier work.
Source text: as §1

Another data set can be described thus: in vivo. As to conditions: both, C57BL/6, mouse, ip, 1 mg/kg.
Data set [4] concerns caspases, thrombin, factor Xa, trypsin and granzyme B. As to conditions: cited from earlier work.
Setting [5] is: Mean M10 concentration in plasma.

Peptide text beside a SMILES is read from it.

Description for in vivo: as §2, §3, §4

Take `C[C@H](NC(=O)[C@@H]1CCCN1C(=O)[C@H](CCCNC(=N)N)NC(=O)[C@@H](N)[C@@H](C)O)C(=O)N[C@@H](CO)C(=O)N[C@@H](Cc1ccccc1)C(=O)N[C@@H](Cc1c[nH]c2ccccc12)C(=O)N[C@@H](CCC(=O)O)C(=O)N[C@H](C(=O)N[C@@H](CO)C(=O)O)[C@@H](C)O` [M10] (H-TRPASFWETS-OH; N-terminus and C-terminus assumed): the “Mean M10 concentration in plasma” value in data set [1] (both, C57BL/6, mouse, 24 h) is 1216 ng/mL. Besides, in data set [1] (mouse), the “Cmax (peak plasma concentration)” value came out at 4861.5 ± 11.5 ng/mL and the “Time by which plasma concentration declined to minimal (detectable) levels” value is at most 48 h. Further, in data set [2], the Effect on collagen entry was “reduces collagen”. In addition, in data set [3], the Effect on collagen result is recorded as “reduces collagen”. In addition, the “Interaction with Smad2” value with Smad2 is listed as “interacts with Smad2”. Besides, in the data set “in vivo”, the exposure AUC(0-t) came to 72500 ± 2390 ng·h/mL, the Tmax is 6 h and the half-life is 6.8 ± 0.7 h. In addition, in the data set “in vivo” (setting [5]), the level at 4 h is 3590 ng/mL, the level at 6 h worked out at 4550 ng/mL, the level at 12 h is 3140 ng/mL and the level at 24 h was determined as 801 ng/mL. In the data set “in vivo” (setting [5]), this compound gave a level at 48 h of 366 ng/mL. For the same compound, the “Resistance to mammalian proteases” value in data set [4] is recorded as “resistance to many mammalian proteases”.

Values taken from PMC5703532, “Establishment of an indirect ELISA for detection of the novel antifibrotic peptide M10” (PLoS ONE, 2017).
